Measurements published in US12171230B2, “Herbicidal compositions” (Bayer Aktiengesellschaft, priority 2018, dated 2024).

What was measured:
Format in all cases: in vivo
[1] = test system: Veronica hederifolia; assay: Post-emergence herbicidal action against Veronica hederifolia; details: 14 DAT
[2] = test system: Alopecurus myosuroides; assay: Post-emergence herbicidal action against Alopecurus myosuroides
[3] = test system: Phalaris minor; assay: Post-emergence herbicidal action against Phalaris minor
[4] = test system: Lamium purpureum; assay: Post-emergence herbicidal action against Lamium purpureum
Outline: (§1)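 Weeds sown in sandy loam pots in greenhouse; treated post-emergence at three-leaf stage (three weeks after sowing) by spraying formulated compositions at various dosages in 300 to 800 l/ha water. Visual scoring versus untreated controls after about 3 to 4 weeks; synergism judged against Colby expected values.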

[5] = test system: Lolium rigidum (resistant biotype); assay: Post-emergence herbicidal action against Lolium rigidum (resistant biotype)
[6] = test system: Poa annua; assay: Post-emergence herbicidal action against Poa annua
Outline: as §1

[7] = test system: Matricaria inodora; assay: Post-emergence herbicidal action against Matricaria inodora
[8] = test system: Lolium rigidum; assay: Post-emergence herbicidal action against Lolium rigidum
[9] = test system: Centaurea cyano; assay: Post-emergence herbicidal action against Centaurea cyano; details: 50 g of a.i./ha
Outline: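 Greenhouse pot-grown plants sprayed post-emergence at the three-leaf stage, three weeks after sowing, with spray-powder or emulsion-concentrate formulations at various dosages in 300 to 800 l/ha water on green parts.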

[10] = test system: Viola tricolor; assay: Post-emergence herbicidal action against Viola tricolor
[11] = test system: Bromus sterilis; assay: Post-emergence herbicidal action against Bromus sterilis
[12] = test system: Galium aparine; assay: Post-emergence herbicidal action against Galium aparine
Outline: as §1

[13] = test system: Brachiaria plantaginea; assay: Post-emergence herbicidal action against Brachiaria plantaginea; details: 30 g of a.i./ha
Excerpt: (§2) The following abbreviations are used in the description and the tables that follow: • g of a.i./ha=grams of active substance (active ingredient) (=100% active compound) per hectare; • The sum total of the effects of the individual applications is reported under E^A; • expected values according to Colby are each reported under E^C.
(§3) The rating period is reported in days after application (DAT).

[14] = test system: Brachiaria platyphylla; assay: Post-emergence herbicidal action against Brachiaria platyphylla
Method: (§4) When the observed efficacies exceed the formal sum total of the values of the tests with individual applications, they also exceed the expected value according to Colby, which is calculated using the formula below and is likewise regarded as an indication of synergism (cf. S. R. Colby; in Weeds 15 (1967) p. 20 to 22): E^C=A+B−([…])
(§5) Here: • A=efficacy of the active compound (A) in % at an application rate of a g a.i./ha; • B=efficacy of the active compound (B) in % at an application rate of b g a.i./ha; • E^C=expected value of the effect of the combination (A)+(B) in % at the combined application rate a+b g a.i./ha.
(§6) Seeds or rhizome pieces of mono- and dicotyledonous weeds are placed in sandy loam in pots, covered with soil and grown in a greenhouse under good growth conditions (temperature, air humidity, water supply). Three weeks after sowing, the test plants were treated at the three-leaf stage with the compositions according to the invention. The compositions according to the invention formulated as spray powders or as emulsion concentrates were sprayed onto the green plant parts in various dosages with an application rate of 300 to 800 l/ha of water (equivalent). After the test plants have been left to stand in the greenhouse under optimal growth conditions for about 3 to 4 weeks, the action of the preparations is scored visually in comparison to untreated controls. The compositions according to the invention also have good post-emergence herbicidal activity against a broad spectrum of economically important gramineous and broadleaf weeds.

[15] = test system: Setaria viridis; assay: Post-emergence herbicidal action against Setaria viridis; details: 50 g of a.i./ha
Method: as §4, §5, §6

[16] = test system: Sorghum halepense; assay: Post-emergence herbicidal action against Sorghum halepense; details: 450 g of a.i./ha
Method: as §4, §5, §6

[17] = test system: Digitaria sanguinalis; assay: Post-emergence herbicidal action against Digitaria sanguinalis
Method: as §4, §5, §6

[18] = test system: Kochia scoparia; assay: Post-emergence herbicidal action against Kochia scoparia
Excerpt: as §2, §3

[19] = test system: Abutilon theophrasti; assay: Post-emergence herbicidal action against Abutilon theophrasti
Excerpt: as §2, §3

[20] = test system: Pharbitis purpurea; assay: Post-emergence herbicidal action against Pharbitis purpurea
Method: as §4, §5, §6

[21] = test system: Bidens pilosa; assay: Post-emergence herbicidal action against Bidens pilosa
Method: as §4, §5, §6

N#Cc1cc(Br)c(O)c(Br)c1 [(B3.1) Bromoxynil]
0%: Herbicidal action against Veronica hederifolia ([1]; 150 g of a.i./ha) | Herbicidal action against Phalaris minor ([3]; 14 DAT, 50 g of a.i./ha) | Herbicidal action against Phalaris minor ([3]; 28 DAT, 150 g of a.i./ha) | Herbicidal action against Lolium rigidum (resistant biotype) ([5]; 14 DAT, 150 g of a.i./ha) | Herbicidal action against Lolium rigidum ([8]; 14 DAT, 150 g of a.i./ha) | Herbicidal action against Bromus sterilis ([11]; 14 DAT, 50 g of a.i./ha)
40%: Herbicidal action against Lamium purpureum L. ([4]; 14 DAT, 450 g of a.i./ha) | Herbicidal action against Matricaria inodora ([7]; 14 DAT, 50 g of a.i./ha) | Herbicidal action against Viola tricolor ([10]; 28 DAT, 150 g of a.i./ha)
20%: Herbicidal action against Veronica hederifolia ([1]; 450 g of a.i./ha) | Herbicidal action against Lolium rigidum (resistant biotype) ([5]; 28 DAT, 450 g of a.i./ha) | Herbicidal action against Poa annua L. ([6]; 14 DAT, 450 g of a.i./ha) | Herbicidal action against Lolium rigidum ([8]; 28 DAT, 450 g of a.i./ha) | Herbicidal action against Bromus sterilis ([11]; 28 DAT, 450 g of a.i./ha) | Herbicidal action against Galium aparine ([12]; 14 DAT, 50 g of a.i./ha)
80%: Herbicidal action against Matricaria inodora ([7]; 28 DAT, 450 g of a.i./ha)
75%: Herbicidal action against Galium aparine ([12]; 28 DAT, 450 g of a.i./ha)
50%: Herbicidal action against Viola tricolor ([10]; 14 DAT, 150 g of a.i./ha) | Herbicidal action against Galium aparine ([12]; 14 DAT, 450 g of a.i./ha)
30%: Herbicidal action against Centaurea cyanus ([9]; 14 DAT) | Herbicidal action against Viola tricolor ([10]; 14 DAT, 450 g of a.i./ha) | Herbicidal action against Galium aparine ([12]; 14 DAT, 150 g of a.i./ha)
15%: Herbicidal action against Alopecurus myosuroides ([2]; 14 DAT, 150 g of a.i./ha) | Herbicidal action against Alopecurus myosuroides ([2]; 28 DAT, 150 g of a.i./ha) | Herbicidal action against Phalaris minor ([3]; 14 DAT, 450 g of a.i./ha) | Herbicidal action against Phalaris minor ([3]; 28 DAT, 450 g of a.i./ha) | Herbicidal action against Lamium purpureum L. ([4]; 14 DAT, 150 g of a.i./ha) | Herbicidal action against Lolium rigidum (resistant biotype) ([5]; 14 DAT, 450 g of a.i./ha) | Herbicidal action against Poa annua L. ([6]; 14 DAT, 150 g of a.i./ha) | Herbicidal action against Poa annua L. ([6]; 28 DAT, 150 g of a.i./ha) | Herbicidal action against Matricaria inodora ([7]; 28 DAT, 50 g of a.i./ha) | Herbicidal action against Lolium rigidum ([8]; 14 DAT, 450 g of a.i./ha) | Herbicidal action against Viola tricolor ([10]; 14 DAT, 50 g of a.i./ha) | Herbicidal action against Viola tricolor ([10]; 28 DAT, 450 g of a.i./ha) | Herbicidal action against Bromus sterilis ([11]; 28 DAT, 150 g of a.i./ha)
10%: Herbicidal action against Phalaris minor ([3]; 14 DAT, 150 g of a.i./ha) | Herbicidal action against Lolium rigidum (resistant biotype) ([5]; 28 DAT, 150 g of a.i./ha) | Herbicidal action against Lolium rigidum ([8]; 28 DAT, 150 g of a.i./ha) | Herbicidal action against Centaurea cyanus ([9]; 28 DAT) | Herbicidal action against Bromus sterilis ([11]; 14 DAT, 150 g of a.i./ha) | Herbicidal action against Bromus sterilis ([11]; 14 DAT, 450 g of a.i./ha)
25%: Herbicidal action against Alopecurus myosuroides ([2]; 14 DAT, 450 g of a.i./ha) | Herbicidal action against Alopecurus myosuroides ([2]; 28 DAT, 450 g of a.i./ha) | Herbicidal action against Lamium purpureum L. ([4]; 28 DAT, 150 g of a.i./ha) | Herbicidal action against Lamium purpureum L. ([4]; 28 DAT, 450 g of a.i./ha) | Herbicidal action against Poa annua L. ([6]; 28 DAT, 450 g of a.i./ha) | Herbicidal action against Viola tricolor ([10]; 28 DAT, 50 g of a.i./ha)
85%: Herbicidal action against Matricaria inodora ([7]; 14 DAT, 450 g of a.i./ha)

COc1c(Cl)ccc(-c2nc(C(=O)O)c(Cl)c(N)c2F)c1F [(B5.23) Florpyrauxifen]
40%: Herbicidal action 28 DAT [%] against Brachiaria plantaginea [13]

CCc1cccc(C)c1N(C(=O)CCl)[C@@H](C)COC [(B2.64) S-Metolachlor]
30%: Herbicidal action 21 DAT against Setaria viridis [15]
20%: Herbicidal action 21 DAT against Bidens pilosa ([21]; 450 g of a.i./ha)
10%: Herbicidal action 21 DAT against Brachiaria platyphylla ([14]; 150 g of a.i./ha) | Herbicidal action 21 DAT against Digitaria sanguinalis ([17]; 50 g of a.i./ha) | Herbicidal action 21 DAT against Kochia scoparia ([18]; 450 g of a.i./ha) | Herbicidal action 21 DAT against Abutilon theophrasti ([19]; 450 g of a.i./ha) | Herbicidal action 21 DAT against Pharbitis purpurea ([20]; 450 g of a.i./ha) | Herbicidal action 21 DAT against Bidens pilosa ([21]; 150 g of a.i./ha)
40%: Herbicidal action 21 DAT against Sorghum halepense [16] | Herbicidal action 21 DAT against Digitaria sanguinalis ([17]; 150 g of a.i./ha)
25%: Herbicidal action 21 DAT against Brachiaria platyphylla ([14]; 450 g of a.i./ha)
0%: Herbicidal action 21 DAT against Kochia scoparia ([18]; 150 g of a.i./ha) | Herbicidal action 21 DAT against Abutilon theophrasti ([19]; 150 g of a.i./ha) | Herbicidal action 21 DAT against Pharbitis purpurea ([20]; 150 g of a.i./ha)
